test system: tau protein; assay: Tau protein in vitro degradation assay (Western blot, Tau-13 antibody); type: cell-based, human; conditions: SK-N-SH cells; 72 hours of incubation; tested at 300 nM, 100 nM, 33 nM and 11 nM; Western blot, Tau-13 antibody
Outline: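 SK-N-SH cells, seeded ≥18 h beforehand, were incubated 72 h with tau PROTACs at 1000, 300 and 100 nM or at 300, 100, 33 and 11 nM. Lysates in protease-inhibitor buffer were resolved by SDS-PAGE; tau quantified by Western blot with Tau-13 antibody recognising all human tau forms.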

Compound | Degradation activity* (highest amount of degradation observed at any dosage; tau protein remaining)
Cn1c2ccncc2c2ccc(-c3ccc(O[C@H]4C[C@H](Oc5ccc(CCCCCOc6ccc7c(c6)C(=O)N(C6CCC(=O)NC6=O)C7=O)nc5)C4)nc3)cc21 (some centres unmarked) [Compound 95, 2-(2,6-dioxopiperidin-3-yl)-5-((5-(5-((1r,3r)-3-((5-(5-methyl-5H-pyrido[4,3-b]indol-7-yl)pyridin-2-yl)oxy)cyclobutoxy)pyridin-2-yl)pentyl)oxy)isoindoline-1,3-dione] | C (>80% tau protein remaining after 72 hours of incubation with the test compound)
Cn1c2ccncc2c2ccc(-c3ccc(O[C@H]4C[C@H](OCCCCCCN5CCN(c6ccc7c(c6)C(=O)N(C6CCC(=O)NC6=O)C7=O)CC5C(F)(F)F)C4)nc3)cc21 (some centres unmarked) [Compound 96, 2-(2,6-dioxopiperidin-3-yl)-5-(4-(6-((1r,3r)-3-((5-(5-methyl-5H-pyrido[4,3-b]indol-7-yl)pyridin-2-yl)oxy)cyclobutoxy)hexyl)-3-(trifluoromethyl)piperazin-1-yl)isoindoline-1,3-dione] | B (≤80% and >50% tau protein remaining after 72 hours of incubation with the test compound)
Cn1c2ccncc2c2ccc(-c3ccc(O[C@H]4C[C@H](Oc5ccc(C#CCCCCOc6ccc7c(c6)C(=O)N(C6CCC(=O)NC6=O)C7=O)nc5)C4)nc3)cc21 (some centres unmarked) [Compound 97, 2-(2,6-dioxopiperidin-3-yl)-5-((6-(5-((1r,3r)-3-((5-(5-methyl-5H-pyrido[4,3-b]indol-7-yl)pyridin-2-yl)oxy)cyclobutoxy)pyridin-2-yl)hex-5-yn-1-yl)oxy)isoindoline-1,3-dione] | B (≤80% and >50% tau protein remaining after 72 hours of incubation with the test compound)
Cn1c2ccncc2c2ccc(-c3ccc(O[C@H]4C[C@H](Oc5ccc(CCCCCCOc6ccc7c(c6)C(=O)N(C6CCC(=O)NC6=O)C7=O)nc5)C4)nc3)cc21 (some centres unmarked) [Compound 98, 2-(2,6-dioxopiperidin-3-yl)-5-((6-(5-((1r,3r)-3-((5-(5-methyl-5H-pyrido[4,3-b]indol-7-yl)pyridin-2-yl)oxy)cyclobutoxy)pyridin-2-yl)hexyl)oxy)isoindoline-1,3-dione] | B (≤80% and >50% tau protein remaining after 72 hours of incubation with the test compound)
Cn1c2ccncc2c2ccc(-c3ccc(O[C@H]4C[C@H](OCCCOCCCN5CC(Oc6ccc7c(c6)C(=O)N(C6CCC(=O)NC6=O)C7=O)C5)C4)nc3)cc21 (some centres unmarked) [Compound 99, 2-(2,6-dioxopiperidin-3-yl)-5-((1-(3-(3-((1r,3r)-3-((5-(5-methyl-5H-pyrido[4,3-b]indol-7-yl)pyridin-2-yl)oxy)cyclobutoxy)propoxy)propyl)azetidin-3-yl)oxy)isoindoline-1,3-dione] | A (≤50% tau protein remaining after 72 hours of incubation with the test compound)
Cn1c2ccncc2c2ccc(-c3ccc(OCCCCOCCCCOC4CC5(C4)CN(c4ccc6c(c4)C(=O)N(C4CCC(=O)NC4=O)C6=O)C5)nc3)cc21 (centres unmarked) [Compound 100, 2-(2,6-dioxopiperidin-3-yl)-5-(6-(4-(4-((5-(5-methyl-5H-pyrido[4,3-b]indol-7-yl)pyridin-2-yl)oxy)butoxy)butoxy)-2-azaspiro[3.3]heptan-2-yl)isoindoline-1,3-dione] | C (>80% tau protein remaining after 72 hours of incubation with the test compound)
O=C1CCC(N2C(=O)c3ccc(OC4CN(CCCOCCCO[C@H]5C[C@H](Oc6ncc(-c7ccc8c(c7)[nH]c7ccncc78)cc6C(F)(F)F)C5)C4)cc3C2=O)C(=O)N1 (some centres unmarked) [Compound 101, 5-((1-(3-(3-((1r,3r)-3-((5-(5H-pyrido[4,3-b]indol-7-yl)-3-(trifluoromethyl)pyridin-2-yl)oxy)cyclobutoxy)propoxy)propyl)azetidin-3-yl)oxy)-2-(2,6-dioxopiperidin-3-yl)isoindoline-1,3-dione] | A (≤50% tau protein remaining after 72 hours of incubation with the test compound)
Cn1c2ccncc2c2ccc(-c3ccc(O[C@H]4C[C@H](Oc5ccc(C#CCCCCOc6ccc7c(c6)C(=O)N(C6CCC(=O)NC6=O)C7=O)cn5)C4)nc3)cc21 (some centres unmarked) [Compound 102, 2-(2,6-dioxopiperidin-3-yl)-5-((6-(6-((1r,3r)-3-((5-(5-methyl-5H-pyrido[4,3-b]indol-7-yl)pyridin-2-yl)oxy)cyclobutoxy)pyridin-3-yl)hex-5-yn-1-yl)oxy)isoindoline-1,3-dione] | C (>80% tau protein remaining after 72 hours of incubation with the test compound)
Cn1c2ccncc2c2ccc(-c3ccc(O[C@H]4C[C@H](OCCCOCCCOC5CN(c6ccc7c(c6)C(=O)N(C6CCC(=O)NC6=O)C7=O)C5)C4)nc3)cc21 (some centres unmarked) [Compound 104, 2-(2,6-dioxopiperidin-3-yl)-5-(3-(3-(3-((1r,3r)-3-((5-(5-methyl-5H-pyrido[4,3-b]indol-7-yl)pyridin-2-yl)oxy)cyclobutoxy)propoxy)propoxy)azetidin-1-yl)isoindoline-1,3-dione] | A (≤50% tau protein remaining after 72 hours of incubation with the test compound)
Cn1c2ccncc2c2ccc(-c3cnc(O[C@H]4C[C@H](OCCCOCCCN5CC(Oc6ccc7c(c6)C(=O)N(C6CCC(=O)NC6=O)C7=O)C5)C4)c(C(F)(F)F)c3)cc21 (some centres unmarked) [Compound 105, 2-(2,6-dioxopiperidin-3-yl)-5-((1-(3-(3-((1r,3r)-3-((5-(5-methyl-5H-pyrido[4,3-b]indol-7-yl)-3-(trifluoromethyl)pyridin-2-yl)oxy)cyclobutoxy)propoxy)propyl)azetidin-3-yl)oxy)isoindoline-1,3-dione] | A (≤50% tau protein remaining after 72 hours of incubation with the test compound)
Cn1c2ccncc2c2ccc(-c3ccc(OC4CN(CCCCCOCCCCCOc5ccc6c(c5)C(=O)N(C5CCC(=O)NC5=O)C6=O)C4)nc3)cc21 (centres unmarked) [Compound 106, 2-(2,6-dioxopiperidin-3-yl)-5-((5-((5-(3-((5-(5-methyl-5H-pyrido[4,3-b]indol-7-yl)pyridin-2-yl)oxy)azetidin-1-yl)pentyl)oxy)pentyl)oxy)isoindoline-1,3-dione] | B (≤80% and >50% tau protein remaining after 72 hours of incubation with the test compound)
Cn1c2ccncc2c2ccc(-c3ccc(OC4CC5(C4)CN(CCCCOCCCCOc4ccc6c(c4)C(=O)N(C4CCC(=O)NC4=O)C6=O)C5)nc3)cc21 (centres unmarked) [Compound 107, 2-(2,6-dioxopiperidin-3-yl)-5-(4-(4-(6-((5-(5-methyl-5H-pyrido[4,3-b]indol-7-yl)pyridin-2-yl)oxy)-2-azaspiro[3.3]heptan-2-yl)butoxy)butoxy)isoindoline-1,3-dione] | C (>80% tau protein remaining after 72 hours of incubation with the test compound)
Cn1c2ccncc2c2ccc(-c3ccc(O[C@H]4C[C@H](Oc5cccc(OCCCCCCOc6ccc7c(c6)C(=O)N(C6CCC(=O)NC6=O)C7=O)n5)C4)nc3)cc21 (some centres unmarked) [Compound 108, 2-(2,6-dioxopiperidin-3-yl)-5-((6-((6-((1r,3r)-3-((5-(5-methyl-5H-pyrido[4,3-b]indol-7-yl)pyridin-2-yl)oxy)cyclobutoxy)pyridin-2-yl)oxy)hexyl)oxy)isoindoline-1,3-dione] | C (>80% tau protein remaining after 72 hours of incubation with the test compound)
Cn1c2ccncc2c2ccc(-c3ccc(O[C@H]4C[C@H](Oc5ccnc(OCCCCCCOc6ccc7c(c6)C(=O)N(C6CCC(=O)NC6=O)C7=O)c5)C4)nc3)cc21 (some centres unmarked) [Compound 109, 2-(2,6-dioxopiperidin-3-yl)-5-((6-((4-((1r,3r)-3-((5-(5-methyl-5H-pyrido[4,3-b]indol-7-yl)pyridin-2-yl)oxy)cyclobutoxy)pyridin-2-yl)oxy)hexyl)oxy)isoindoline-1,3-dione] | C (>80% tau protein remaining after 72 hours of incubation with the test compound)
Cn1c2ccncc2c2ccc(-c3ccc(O[C@H]4C[C@H](Oc5ccc(CCCCCCOc6ccc7c(c6)C(=O)N(C6CCC(=O)NC6=O)C7=O)cn5)C4)nc3)cc21 (some centres unmarked) [Compound 110, 2-(2,6-dioxopiperidin-3-yl)-5-((6-(6-((1r,3r)-3-((5-(5-methyl-5H-pyrido[4,3-b]indol-7-yl)pyridin-2-yl)oxy)cyclobutoxy)pyridin-3-yl)hexyl)oxy)isoindoline-1,3-dione] | C (>80% tau protein remaining after 72 hours of incubation with the test compound)
Cn1c2ccncc2c2ccc(-c3ccc(O[C@H]4C[C@H](Oc5ccc(C#CCOC6CN(c7ccc8c(c7)C(=O)N(C7CCC(=O)NC7=O)C8=O)C6)nc5)C4)nc3)cc21 (some centres unmarked) [Compound 111, 2-(2,6-dioxopiperidin-3-yl)-5-(3-((3-(5-((1r,3r)-3-((5-(5-methyl-5H-pyrido[4,3-b]indol-7-yl)pyridin-2-yl)oxy)cyclobutoxy)pyridin-2-yl)prop-2-yn-1-yl)oxy)azetidin-1-yl)isoindoline-1,3-dione] | C (>80% tau protein remaining after 72 hours of incubation with the test compound)
Cn1c2ccncc2c2c(F)c(F)c(-c3ccc(OCCOCCOCCOCCOCCOc4ccc5c(c4)C(=O)N(C4CCC(=O)NC4=O)C5=O)nc3)cc21 (centres unmarked) [Compound 112, 5-((14-((5-(8,9-difluoro-5-methyl-5H-pyrido[4,3-b]indol-7-yl)pyridin-2-yl)oxy)-3,6,9,12-tetraoxatetradecyl)oxy)-2-(2,6-dioxopiperidin-3-yl)isoindoline-1,3-dione] | A (≤50% tau protein remaining after 72 hours of incubation with the test compound)
